One series concerns the target T1, p70S6K (Homo sapiens, UniProt P23443).
T1 construct: purchased Upstate/Millipore
The experiment in a line: p70S6 kinase activity assay (HTRF). The class given is biochemical. The note with it: class symbol for inhibition. The procedure: p70S6K activity was assayed using Cisbio's homogeneous time-resolved fluorescence (HTRF®) technology. The extent of phosphorylation of the biotinylated peptide substrate STK-S3 is determined using a phospho-specific STK Antibody labeled with Eu^3+-cryptate and streptavidin-XL665 that will bind to the biotin on the peptide. When in close proximity, excitation of the Eu^3+ cryptate donor fluorophore results in fluorescence resonance energy transfer (FRET) to the XL665 acceptor fluorophore and the emission signal from XL665 is measured.
The assay is performed using reagents from the HTRF® KinEASE™-STK kit from Cisbio including enzymatic buffer (50 mM HEPES pH7, 0.02% NaN3, 0.01% BSA, and 0.1 mM Na3VO4), STK-S3 substrate-biotin, Eu^3+-Cryptate labeled STK antibody, Streptavidin-XL665, and detection buffer (50 mM HEPES pH 7, 0.1% BSA, 0.8M KF, and 20 mM EDTA). Test inhibitors and controls (staurosporine) are prepared at 5× the desired final concentration. Test compound (5.0 μL), p70S6 (10 μL) from Upstate/Millipore (final concentration is 2.5 ng/well), and 10 μL substrate/ATP are added to each well of a reaction plate (Corning 96-well half-area solid black nonbinding surface plate). All reaction components are diluted in enzymatic buffer supplemented with 2 mM MgCl2 and 1 mM DTT. The final concentration of STK-S3 substrate is 500 nM and the final concentration of ATP is 100 μM.
(In general: In TR-FRET formats the signal depends on donor and acceptor labels being close together.)

A further series concerns FGFR2 kinase. The experiment in a line: FGFR2 kinase fluorescent ELISA assay. The class given is biochemical. Particulars: class symbol for inhibition. The procedure:
A fluorescent ELISA assay was developed to identify and characterize inhibitors of FGFR2 kinase. This heterogeneous assay utilizes a biotinylated peptide with a tyrosine motif as a substrate and an anti-phospho-tyrosine antibody to measure phosphorylation of the substrate. The reaction is initiated by adding test compound, 37 uM Pyk2 substrate (Midwest Biotech, cat. #MBT2383) and 12.5 μM ATP (Roche, cat. #11 140 965 001), and 0.5 μM FGFR2 enzyme (Millipore, cat. #14-742) sequentially to a non-binding polypropylene V-well plate. All reagents are in assay buffer consisting of: 50 mM Tris-HCL, 0.02 mg/mL BSA, 10 mM MgCl2, 0.1 mM Na3VO4, 1 mM EGTA, 75 μM ATP, 0.01% NP-40, 2 mM DTT, 10% Glycerol. The reaction is incubated for 60 minutes. As the reaction proceeds, FGFR2 phosphorylates tyrosines in the peptide. The reaction mixture is then moved to a blocked streptavidin coated Nunc Maxisorb plate (coated with 100 ng streaptavidin from Pierce (cat #15-124) per well) allowing for the capture of the biotinylated peptide. Peptide is captured for 30 minutes at room temperature, the phosphorylation of peptide continues during this phase. The reaction is stopped by washing the Streptavidin plate 6 times with TBST. Phosphorylated peptide is detected by adding anti-phospho tyrosine antibody (purchased from Cell Signaling, cat. #9411, diluted 1:3000), unbound antibody is removed by washing 6 times with TBST. Secondary detection is performed using Alkaline Phosphatase tagged goat anti-mouse antibody (purchased from Pierce, cat. #31320, diluted 1:4000) for one hour. Unbound secondary antibody is removed by washing 6 times with TBST.
The fluorescent readout is initiated by the addition of Promega Attophos substrate (purchased from Promega; Kit catalog number: S1000, dilution=6 mg/10 mL), which when dephosphorylated by Alkaline phosphatase emits a fluorescent signal of […] when excited by a signal […]. This reading is done on the Perkin Elmer Envision system. Compounds which prevent the FGFR2 from phosphorylating the peptide result in a lower fluorescent signal. The signal is directly proportional to the activity of FGFR2 and compound inhibition of FGFR2 is monitored by a decrease in signal.
Background: In an ELISA, binding on a coated surface is turned into a signal by an enzyme label.

For series [1], the target named is full length inactive AKT1 protein (Homo sapiens, UniProt P31749). The series can be described thus: AKT activity; thermal shift binding assay. The note with it: class symbol for inhibition. The procedure:
Aliquots of compounds in DMSO (1 μL @ 375 μM) were placed in the V bottom 96 well PCR plate, and incubated for 30 minutes with 24 μL of AKT1 protein in 25 mM TRIS buffer pH 7.5, 100 mM NaCl, 0.1% 2-mercaptoethanol, pre-mixed with environmentally sensitive fluorescent dye Sypro Orange (12.5×). The plates were centrifuged for […] @ 2000 rpm and 25° C. before the analysis on the IQ5 Real time PCR machine (Biorad). The thermal stability of the protein-ligand complex was monitored by changes in Sypro Orange fluorescence while subjecting the binding mixture to a temperature gradient of 30 to 75° C. at 1° C./min heating rate. Shifts in the protein melting temperature (ΔTm) greater than 0.6° C. compared to the protein alone were indicative of the inhibitor binding. Dissociation constants (Kd's) for the inhibitors were calculated from the melting curves as described in Mei-Chu-Lo et al., Anal.Biochem., 332: 153, 2004.

T1 sequence (P23443 whole entry): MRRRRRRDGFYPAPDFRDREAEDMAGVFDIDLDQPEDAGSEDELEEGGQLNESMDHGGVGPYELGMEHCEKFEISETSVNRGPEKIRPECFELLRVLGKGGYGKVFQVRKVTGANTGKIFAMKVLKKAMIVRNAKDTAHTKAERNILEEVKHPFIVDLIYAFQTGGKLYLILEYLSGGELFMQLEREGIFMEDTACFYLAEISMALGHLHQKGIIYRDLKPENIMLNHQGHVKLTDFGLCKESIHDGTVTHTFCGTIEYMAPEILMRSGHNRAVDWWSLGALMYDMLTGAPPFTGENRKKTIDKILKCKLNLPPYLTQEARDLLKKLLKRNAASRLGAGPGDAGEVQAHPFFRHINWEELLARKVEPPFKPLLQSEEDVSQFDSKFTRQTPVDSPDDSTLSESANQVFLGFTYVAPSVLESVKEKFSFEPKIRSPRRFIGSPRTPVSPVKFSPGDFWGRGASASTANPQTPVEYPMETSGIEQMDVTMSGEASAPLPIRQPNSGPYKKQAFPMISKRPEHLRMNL
Sequence of full length inactive AKT1 protein (P31749 whole entry): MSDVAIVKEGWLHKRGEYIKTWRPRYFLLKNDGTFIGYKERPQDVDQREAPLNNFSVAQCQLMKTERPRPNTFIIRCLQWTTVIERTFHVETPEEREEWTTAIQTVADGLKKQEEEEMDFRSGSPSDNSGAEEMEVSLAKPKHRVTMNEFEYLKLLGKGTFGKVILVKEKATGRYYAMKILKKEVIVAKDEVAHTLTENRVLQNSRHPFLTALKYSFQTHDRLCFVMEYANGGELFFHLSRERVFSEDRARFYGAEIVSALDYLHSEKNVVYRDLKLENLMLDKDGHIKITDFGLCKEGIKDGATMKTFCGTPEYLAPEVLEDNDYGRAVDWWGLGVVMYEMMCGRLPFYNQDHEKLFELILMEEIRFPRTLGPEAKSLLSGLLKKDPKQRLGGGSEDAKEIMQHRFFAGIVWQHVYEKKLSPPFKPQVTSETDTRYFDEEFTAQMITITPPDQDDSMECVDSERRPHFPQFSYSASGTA

With “2-acetamido-N-(3-(5-benzoyl-7H-pyrrolo[2,3-d]pyrimidin-4-ylamino)phenyl)acetamide [Compound 2a]”, on p70S6K, the p70S6 kinase activity entry was “+ (A positive sign indicates that inhibition is greater or equal to 25%)”. The FGFR2 kinase activity result in the series with FGFR2 kinase is “− (A negative sign indicates that inhibition is less than 25%)”. Also, in series [1], the AKT activity result is recorded as “− (A negative sign indicates that inhibition is less than 25%)”.
“3-acetamido-N-(3-(5-benzoyl-7H-pyrrolo[2,3-d]pyrimidin-4-ylamino)phenyl)propanamide [Compound 4a]”: the p70S6 kinase activity result at p70S6K is “+ (A positive sign indicates that inhibition is greater or equal to 25%)”. Besides, in the series with FGFR2 kinase, the FGFR2 kinase activity result is recorded as “− (A negative sign indicates that inhibition is less than 25%)”. Also, the AKT activity result in series [1] is “− (A negative sign indicates that inhibition is less than 25%)”.
`COc1cccc(CNc2nccc(-c3cc(N4CCN(CCCN5CCCCC5)CC4)c4cc(OC)ccc4c3)n2)c1` [Compound 194, 4-(6-methoxy-4-(4-(3-(piperidin-1-yl)propyl)piperazin-1-yl)naphthalen-2-yl)-N-(3-methoxybenzyl)pyrimidin-2-amine] registered a melting point of 63 to 75 °C.
Same read-out and setting: with `COc1cccc(CNc2nccc(-c3cc(N4CCN(CCCN(C)C)CC4)c4cc(OC)ccc4c3)n2)c1` [Compound 195, 4-(4-(4-(3-(dimethylamino)propyl)piperazin-1-yl)-6-methoxynaphthalen-2-yl)-N-(3-methoxybenzyl)pyrimidin-2-amine] the figure was 70 to 75 °C.
Molecule `COc1cccc(CNc2nccc(-c3cc(N4CCN(CCCN5CCOCC5)CC4)c4cc(OC)ccc4c3)n2)c1` [Compound 196, 4-(6-methoxy-4-(4-(3-morpholinopropyl)piperazin-1-yl)naphthalen-2-yl)-N-(3-methoxybenzyl)pyrimidin-2-amine] returned a melting point of 65 to 73 °C.
With “(4-(3-aminophenylamino)-7H-pyrrolo[2,3-d]pyrimidin-5-yl)(phenyl)methanone [Compound 5a]”, the p70S6 kinase activity entry at p70S6K is recorded as “+ (A positive sign indicates that inhibition is greater or equal to 25%)”. The FGFR2 kinase activity result with FGFR2 kinase is listed as “− (A negative sign indicates that inhibition is less than 25%)”. In series [1], the AKT activity result is recorded as “+ (A positive sign indicates that inhibition is greater or equal to 25%)”.
For the molecule “N-(3-(3-benzoyl-1H-indol-4-ylamino)phenyl)-3-(pyridin-3-yl)propanamide [Compound 1a]”, the p70S6 kinase activity entry on p70S6K is “+ (A positive sign indicates that inhibition is greater or equal to 25%)”. In addition, the FGFR2 kinase activity result in the series with FGFR2 kinase is “− (A negative sign indicates that inhibition is less than 25%)”. Also, in series [1], the AKT activity entry is on record as “+ (A positive sign indicates that inhibition is greater or equal to 25%)”.
Regarding “N-(3-(5-benzoyl-7-methyl-7H-pyrrolo[2,3-d]pyrimidin-4-ylamino)phenyl)acetamide [Compound 6a]”, at p70S6K, the p70S6 kinase activity result is on record as “− (A negative sign indicates that inhibition is less than 25%)”. In addition, in the series on FGFR2 kinase, the FGFR2 kinase activity entry is “− (A negative sign indicates that inhibition is less than 25%)”. Further, in series [1], the AKT activity result is listed as “+ (A positive sign indicates that inhibition is greater or equal to 25%)”.
“N-(3-(5-benzoyl-7H-pyrrolo[2,3-d]pyrimidin-4-ylamino)phenyl)-2-(dimethylamino)acetamide [Compound 7a]”: on p70S6K, the p70S6 kinase activity result is reported as “+ (A positive sign indicates that inhibition is greater or equal to 25%)”. For the same molecule, in the series with FGFR2 kinase, the FGFR2 kinase activity result is listed as “− (A negative sign indicates that inhibition is less than 25%)”. Moreover, the AKT activity result in series [1] is reported as “− (A negative sign indicates that inhibition is less than 25%)”.
On to “N-(3-(5-benzoyl-7H-pyrrolo[2,3-d]pyrimidin-4-ylamino)phenyl)-4-(dimethylamino)butanamide [Compound 3a]”, for which the p70S6 kinase activity result on p70S6K is reported as “+ (A positive sign indicates that inhibition is greater or equal to 25%)”. Also, the FGFR2 kinase activity result in the series on FGFR2 kinase is reported as “− (A negative sign indicates that inhibition is less than 25%)”. In addition, in series [1], the AKT activity entry is “− (A negative sign indicates that inhibition is less than 25%)”.
For “N-(3-(5-benzoyl-7H-pyrrolo[2,3-d]pyrimidin-4-ylamino)phenyl)-5-(pyrrolidin-1-yl)pentanamide [Compound 8a]”, the p70S6 kinase activity result at p70S6K was “− (A negative sign indicates that inhibition is less than 25%)”. Moreover, the FGFR2 kinase activity result with FGFR2 kinase is “+ (A positive sign indicates that inhibition is greater or equal to 25%)”. The AKT activity entry in series [1] was “+ (A positive sign indicates that inhibition is greater or equal to 25%)”.
As to “N-(3-(5-benzoyl-7H-pyrrolo[2,3-d]pyrimidin-4-ylamino)phenyl)acetamide [Compound 9a]”, the p70S6 kinase activity result on p70S6K was “− (A negative sign indicates that inhibition is less than 25%)”. In addition, the FGFR2 kinase activity result in the series on FGFR2 kinase is “− (A negative sign indicates that inhibition is less than 25%)”. The AKT activity entry in series [1] was “+ (A positive sign indicates that inhibition is greater or equal to 25%)”.
Turning to “N^1-(3-(5-benzoyl-7H-pyrrolo[2,3-d]pyrimidin-4-ylamino)phenyl)succinamide [Compound 10a]”, the p70S6 kinase activity entry on p70S6K is “− (A negative sign indicates that inhibition is less than 25%)”. The FGFR2 kinase activity result in the series with FGFR2 kinase is “+ (A positive sign indicates that inhibition is greater or equal to 25%)”. In series [1], the AKT activity entry is recorded as “− (A negative sign indicates that inhibition is less than 25%)”.

The melting point is the temperature of the solid-liquid transition.

(Values after patent US8173808B2, “Substituted naphthalenyl-pyrimidine compounds” (ArQule, Inc., priority 2009, dated 2012).)
